Assay results from patent publication US20230159527A1, “COMPOUNDS AS BCL-2 INHIBITORS” (Fochon Pharmaceuticals, Ltd., priority 2020, published 2023).
Read-outs that look alike come from different tables or passages of the source.

Test system: Toledo cells
Experiment: Cell proliferation assay, Toledo cells (MTS, 72 h)
Format: cell-based
Conditions: Homo sapiens
Protocol: MTS testing kit was purchased from Promega (Madison, Wis., USA). The RPMI-1640, Fetal bovine serum and Penicillin-Streptomycin were purchased from BI (Biological Industries, Beit Haemek, Israel). Dimethyl sulfoxide (DMSO) was purchased from Sigma (St. Louis, Mo., USA). Toledo (ATCC catalog #: CRL-2631) cells were cultured in RPMI-1640 supplemented with Penicillin-Streptomycin and 10% FBS.
To investigate whether a compound is able to inhibit the activity of BCL-2 in cells, a mechanism-based assay using Toledo lines was developed. In this assay, the inhibition of BCL-2 was reflected by the inhibition of cell proliferation of Toledo cells. Cells were plated into 96-well plates at the optimized cell density of 30000 cells/well. Plates were incubated at 37° C., with 5% CO2 for 4h. Compounds were serially diluted and added to the plates with the final concentrations of 10000, 3333.3, 1111.1, 370.4, 123.5, 41.2, 13.7, 4.6 and 1.5 nM. Plates were incubated at 37° C., with 5% CO2 for 72 h. 20 μl MTS was added into each well and the plates were incubated at 37° C., with 5% CO2 for exactly 2 h. The absorbance was measured by a microplate reader at 490 nm. IC50 was calculated using GraphPad Prism 5.0 software.

[1] = Toledo cells, MTS, read-out: Toledo IC50
[2] = Toledo, read-out: Toledo IC50 (nM)

Row | SMILES | IC50 [1] | IC50 [2]
1 | COCCOc1nc2[nH]ccc2cc1Oc1cc(N2CCC3(CC2)CN([C@H]2CCC[C@H]2c2ccccc2C(C)C)C3)ccc1C(=O)NS(=O)(=O)c1ccc(NC[C@H]2CC[C@](C)(O)CC2)c([N+](=O)[O-])c1 (racemic) [Example D-76, N-((4-((((1r,4r)-4-hydroxy-4-methylcyclohexyl)methyl)amino)-3-nitrophenyl)sulfonyl)-4-(2-((1S,2S and 1R,2R)-2-(2-isopropylphenyl)cyclopentyl)-2,7-diazaspiro[3.5]nonan-7-yl)-2-((6-(2-methoxyethoxy)-1H-pyrrolo[2,3-b]pyridin-5-yl)oxy)benzamide] | 1 nM | –
2 | CC(C)c1ccccc1[C@@H]1CCC[C@@H]1N1CC2(CCN(c3ccc(C(=O)NS(=O)(=O)c4cnc(NC[C@H]5CC[C@](C)(O)CC5)c([N+](=O)[O-])c4)c(Oc4cc5cc[nH]c5nc4Cl)c3)CC2)C1 (relative stereo) [Example A-159, 2-((6-chloro-1H-pyrrolo[2,3-b]pyridin-5-yl)oxy)-N-((6-((((1r,4r)-4-hydroxy-4-methylcyclohexyl)methyl)amino)-_ 5-nitropyridin-3-yl)sulfonyl)-4-(2-((1S,2S or 1R,2R)-2-(2-isopropylphenyl)cyclo-pentyl)-2,7-diazaspiro[3.5]nonan-7-yl) benzamide] | 1 nM | –
3 | COc1nc2[nH]ccc2cc1Oc1cc(N2CCC3(CC2)CC(N2CCOC[C@H]2c2ccccc2C(C)C)C3)ccc1C(=O)NS(=O)(=O)c1cnc(NC[C@H]2CC[C@](C)(O)CC2)c([N+](=O)[O-])c1 (single isomer, unassigned) [Example A-125, N-((6-((((1r,4r)-4-hydroxy-4-methyl-cyclohexyl)methyl)amino)-5-nitropyridin-3-yl)sulfonyl)-4-(2-((R or S)-3-(2-isopropylphenyl)morpholino)-7-azaspiro[3.5]nonan-7-yl)-2-((6-methoxy-1H-pyrrolo[2,3-b]pyridin-5-yl)oxy)benzamide] | 2 nM | –
4 | CC(C)c1ccccc1[C@@H]1COCCN1C1CC2(CCN(c3ccc(C(=O)NS(=O)(=O)c4cnc(NC[C@H]5CC[C@](C)(O)CC5)c([N+](=O)[O-])c4)c(Oc4cc5cc[nH]c5nc4OC(F)F)c3)CC2)C1 (single isomer, unassigned) [Example A-126, 2-((6-(difluoromethoxy)-1H-pyrrolo [2,3-b]pyridin-5-yl)oxy)-N-((6-((((1r,4r)-4-hydroxy-4-methylcyclo-hexyl)methyl)amino)-5-nitropyridin-3-yl)sulfonyl)-4-(2-((R or S)-3-(2-isopropylphenyl)morpholino)-7-azaspiro[3.5]nonan-7-yl) benzamide] | 1 nM | –
5 | CC(C)c1ccccc1[C@@H]1COCCN1C1CC2(CCN(c3ccc(C(=O)NS(=O)(=O)c4cnc(NC[C@H]5CC[C@](C)(O)CC5)c([N+](=O)[O-])c4)c(Oc4cnc5[nH]ccc5c4)n3)CC2)C1 (single isomer, unassigned) [Example A-145, 2-((1H-pyrrolo[2,3-b]pyridin-5-yl)oxy)-N-((6-((((1r,4r)-4-hydroxy-4-methylcyclohexyl)methyl)amino)-5-nitropyridin-3-yl)sulfonyl)-6-(2-((R or S)-3-(2-isopropylphenyl)morpholino)-7-azaspiro[3.5]nonan-7-yl)nicotina-mide] | 1 nM | –
6 | COc1nc2[nH]ccc2cc1Oc1cc(N2CCC3(CC2)CN([C@H]2CCC[C@H]2c2ccccc2C(C)C)C3)ccc1C(=O)NS(=O)(=O)c1cnc(NC[C@H]2CC[C@](C)(O)CC2)c([N+](=O)[O-])c1 (single isomer, unassigned) [Example A-160, N-((6-(((1r,4r)-4-hydroxy-4-methyl-cyclohexyl)methyl)amino)-5-nitro-pyridin-3-yl)sulfonyl)-4-(2-((1S,2S or 1R,2R)-2-(2-isopropylphenyl)cyclo-pentyl)-2,7-diazaspiro[3.5]nonan-7-yl)-2-((6-methoxy-1H-pyrrolo[2,3-b]pyridin-5-yl)oxy)benzamide] | 1 nM | –
7 | CC(C)c1ccccc1[C@@H]1CCC[C@@H]1N1CC2(CCN(c3ccc(C(=O)NS(=O)(=O)c4cnc(NC[C@H]5CC[C@](C)(O)CC5)c([N+](=O)[O-])c4)c(Oc4cc5cc[nH]c5nc4OC4COC4)c3)CC2)C1 (single isomer, unassigned) [Example A-162, N-((6-((((1r,4r)-4-hydroxy-4-methyl-cyclohexyl)methyl)amino)-5-nitro-pyridin-3-yl)sulfonyl)-4-(2-((1S,2S or 1R,2R)-2-(2-isopropylphenyl)cyclo-pentyl)-2,7-diazaspiro[3.5]nonan-7-yl)-2-((6-(oxetan-3-yloxy)-1H-pyrrolo [2,3-b]pyridin-5-yl)oxy)benzamide] | 1 nM | –
8 | CC(C)c1ccccc1[C@@H]1COCCN1C1CC2(CCN(c3ccc(C(=O)NS(=O)(=O)c4ccc(NC[C@H]5CC[C@](C)(O)CC5)c([N+](=O)[O-])n4)c(Oc4cnc5[nH]ccc5c4)c3)CC2)C1 (single isomer, unassigned) [Example C-1, 2-((1H-pyrrolo[2,3-b]pyridin-5-yl)oxy)-N-((5-((((1r,4r)-4-hydroxy-4-methylcyclohexyl)methyl)amino)-6-nitropyridin-2-yl)sulfonyl)-4-(2-((R or S)-3-(2-isopropylphenyl)morpholino)-7-azaspiro[3.5]nonan-7-yl) benzamide] | – | 1 nM
9 | CC(C)c1ccccc1[C@@H]1CCCN1C1CC2(CCN(c3ccc(C(=O)NS(=O)(=O)c4ccc(NC[C@H]5CC[C@](C)(O)CC5)c([N+](=O)[O-])n4)c(Oc4cnc5[nH]ccc5c4)c3)CC2)C1 (single isomer, unassigned) [Example C-2, 2-((1H-pyrrolo[2,3-b]pyridin-5-yl)oxy)-N-((5-((((1r,4r)-4-hydroxy-4-methylcyclohexyl)methyl)amino)-6-nitropyridin-2-yl)sulfonyl)-4-(2-((R or S)-2-(2-isopropylphenyl)pyrrolidin-1-yl)-7-azaspiro[3.5]nonan-7-yl)benzamide] | – | 1 nM
10 | CC(C)c1ccccc1[C@@H]1COCCN1C1CC2(CCN(c3ccc(C(=O)NS(=O)(=O)c4cc5c(c([N+](=O)[O-])c4)N[C@@H]([C@H]4CC[C@](C)(O)CC4)CO5)c(Oc4cnc5[nH]cc(F)c5c4)c3)CC2)C1 (single isomer, unassigned) [Example D-1, 2-((3-fluoro-1H-pyrrolo[2,3-b]pyridin-5-yl)oxy)-N-(((S)-3-((1r,4S)-4-hydroxy-4-methylcyclohexyl)-5-nitro-3,4-dihydro-2H-benzo[b] [1,4]oxazin-7-yl)sulfonyl)-4-(2-((R or S)-3-(2-isopropylphenyl)morpholino)-7-azaspiro[3.5]nonan-7-yl) benzamide] | 1 nM | –
11 | CC(C)c1ccccc1[C@@H]1COCCN1C1CC2(CCN(c3ccc(C(=O)NS(=O)(=O)c4cc5c(c([N+](=O)[O-])c4)N[C@@H]([C@H]4CC[C@](C)(O)CC4)CO5)c(Oc4cnc5[nH]cc(Cl)c5c4)c3)CC2)C1 (single isomer, unassigned) [Example D-2, 2-((3-chloro-1H-pyrrolo[2,3-b]pyridin-5-yl)oxy)-N-(((S)-3-((1r,4S)-4-hydroxy-4-methylcyclohexyl)-5-nitro-3,4-dihydro-2H-benzo[b] [1,4]oxazin-7-yl)sulfonyl)-4-(2-((R or S)-3-(2-isopropylphenyl)morpholino)-7-azaspiro[3.5]nonan-7-yl) benzamide] | – | 1 nM
12 | CC(C)c1ccccc1[C@@H]1COCCN1C1CC2(CCN(c3ccc(C(=O)NS(=O)(=O)c4cc5c(c([N+](=O)[O-])c4)N[C@@H]([C@H]4CC[C@](C)(O)CC4)CO5)c(Oc4cnc5[nH]cc(Br)c5c4)c3)CC2)C1 (single isomer, unassigned) [Example D-3, 2-((3-bromo-1H-pyrrolo[2,3-b]pyridin-5-yl)oxy)-N-((S)-3-((1r,4S)-4-hydroxy-4-methylcyclohexyl)-5-nitro-3,4-dihydro-2H-benzo [b][1,4]oxazin-7-yl)sulfonyl)-4-(2-((R or S)-3-(2-isopropylphenyl)morpholino)-7-azaspiro[3.5]nonan-7-yl) benzamide] | – | 1 nM
13 | CC(C)c1ccccc1[C@@H]1CCCN1C1CC2(CCN(c3ccc(C(=O)NS(=O)(=O)c4cc5c(c([N+](=O)[O-])c4)N[C@@H]([C@H]4CC[C@](C)(O)CC4)CO5)c(Oc4cc5cc[nH]c5nc4OC(F)F)c3)CC2)C1 (single isomer, unassigned) [Example D-11, 2-((6-(difluoromethoxy)-1H-pyrrolo [2,3-b]pyridin-5-yl)oxy)-N-(((S)-3-((1r,4S)-4-hydroxy-4-methylcyclohexyl)-5-nitro-3,4-dihydro-2H-benzo[b][1,4]oxazin-7-yl)sulfonyl)-4-(2-((R or S)-2-(2-isopropylphenyl)pyrrolidin-1-yl)-7-azaspiro[3.5]nonan-7-yl)benzamide] | 1 nM | –
14 | CC(C)c1ccccc1[C@@H]1CCCN1C1CC2(CCN(c3ccc(C(=O)NS(=O)(=O)c4cc5c(c([N+](=O)[O-])c4)N[C@@H](C[C@H]4CC[C@](C)(O)CC4)CO5)c(Oc4cnc5[nH]cc(F)c5c4)c3)CC2)C1 (single isomer, unassigned) [Example D-19, 2-((3-fluoro-1H-pyrrolo[2,3-b]pyridin-5-yl)oxy)-N-(((S)-3-(((1r,4S)-4-hydroxy-4-methylcyclohexyl)methyl)-5-nitro-3,4-dihydro-2H-benzo[b][1,4]oxazin-7-yl)sulfonyl)-4-(2-((R or S)-2-(2-isopropylphenyl)pyrrolidin-1-yl)-7-azaspiro[3.5]nonan-7-yl)benzamide] | 9 nM | –
